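In this assay, cells in 96-well plates receive the compound at five concentrations for 48 hours. Endpoints are linearly interpolated between the surrounding concentrations. Abbreviation: GI50, concentration required for 50% inhibition of growth.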 Activity calls are given as the source filed them. Rule as the data show it: active = GI50 up to about 1.1 µM and inactive = higher.
Assays:
Experiment in all cases: growth of human tumour cells (NCI), 48 h
HL-60 = system: HL-60
SK-OV-3 = system: SK-OV-3
OVCAR-3 = system: OVCAR-3
HCT-15 = system: HCT-15
A549 = system: A549
U-251 = system: U-251
SK-MEL-28 = system: SK-MEL-28
IGROV-1 = system: IGROV-1
SNB-75 = system: SNB-75
KM12 = system: KM12
A498 = system: A498
SK-MEL-2 = system: SK-MEL-2
SF-295 = system: SF-295
MCF7 = system: MCF7
NCI-H23 = system: NCI-H23
OVCAR-5 = system: OVCAR-5
RXF 393 = system: RXF 393
CCRF-CEM = system: CCRF-CEM
CAKI-1 = system: CAKI-1
UO-31 = system: UO-31

| SMILES | GI50 (HL-60) | GI50 (SK-OV-3) | GI50 (OVCAR-3) | GI50 (HCT-15) [µM] | GI50 (A549) | GI50 (U-251) | GI50 (SK-MEL-28) | GI50 (IGROV-1) | GI50 (SNB-75) | GI50 (KM12) | GI50 (A498) | GI50 (SK-MEL-2) | GI50 (SF-295) | GI50 (MCF7) | GI50 (NCI-H23) | GI50 (OVCAR-5) | GI50 (RXF 393) | GI50 (CCRF-CEM) | GI50 (CAKI-1) | GI50 (UO-31) |
| --- | --- | --- | --- | --- | --- | --- | --- | --- | --- | --- | --- | --- | --- | --- | --- | --- | --- | --- | --- | --- |
| CC1(C)N=C(N)N=C(N)N1c1ccc(OCCCOc2ccccc2)c(Cl)c1 | 0.0322 µM (active) | 7.31 µM (inactive) | 0.406 µM (active) | 2.48 | 0.0473 µM (active) | < 0.0236 µM (active) | 0.809 µM (active) | < 0.0301 µM (active) | 0.948 µM (active) | 0.122 µM (active) | 1.4 µM (inactive) | 1.37 µM (inactive) | 0.538 µM (active) | 0.327 µM (active) | 0.239 µM (active) | 0.295 µM (active) | 0.479 µM (active) | 0.175 µM (active) | 1.77 µM (inactive) |  |
| CC(=O)C(C(=O)C(=O)Nc1cc(Cl)c(Cl)cc1Cl)c1csc(N)n1 (stereo unspecified) | > 100 µM (inactive) | > 100 µM (inactive) |  | > 100 | > 100 µM (inactive) | > 100 µM (inactive) | > 100 µM (inactive) | > 100 µM (inactive) | > 100 µM (inactive) | > 100 µM (inactive) | > 100 µM (inactive) | > 100 µM (inactive) | > 100 µM (inactive) |  | > 100 µM (inactive) | > 100 µM (inactive) | > 100 µM (inactive) | > 100 µM (inactive) | > 100 µM (inactive) | > 100 µM (inactive) |
| COc1cc(C2C(C(=O)O)=C(CO)Oc3cc4c(cc32)OCO4)cc(OC)c1OC (stereo unspecified) | > 100 µM (inactive) | > 100 µM (inactive) |  | > 100 | > 100 µM (inactive) | > 100 µM (inactive) | 83.6 µM (inactive) | > 100 µM (inactive) | 40.7 µM (inactive) |  |  |  | > 100 µM (inactive) |  | > 100 µM (inactive) | > 100 µM (inactive) | 93.3 µM (inactive) | > 100 µM (inactive) | 44 µM (inactive) | > 100 µM (inactive) |
| C=CCn1c(=O)c(C)cn(COCCO)c1=O |  |  | > 100 µM (inactive) |  | > 100 µM (inactive) | > 100 µM (inactive) | > 100 µM (inactive) | > 100 µM (inactive) | > 100 µM (inactive) | > 100 µM (inactive) | > 10 µM (inactive) | > 100 µM (inactive) |  | > 100 µM (inactive) | > 100 µM (inactive) | > 100 µM (inactive) | > 100 µM (inactive) | > 100 µM (inactive) | > 100 µM (inactive) | > 100 µM (inactive) |
| C[C@]12CC[C@H](O)C=C1CC[C@@H]1[C@@H]2CC[C@]2(C)C(c3ccc(=O)oc3)CC[C@]12O (stereo partly specified) |  | 0.0294 µM (active) | 0.0125 µM (active) | 0.0175 | 0.0125 µM (active) | 0.0153 µM (active) | 0.0266 µM (active) | 0.0141 µM (active) | 0.0156 µM (active) | 0.0336 µM (active) | 0.0125 µM (active) | 0.0176 µM (active) | 0.0134 µM (active) | 0.015 µM (active) | 0.0125 µM (active) | 0.108 µM (active) |  | 0.0125 µM (active) | 0.0151 µM (active) | 0.0141 µM (active) |
| CN(C)c1ccc(N2C(=S)SC(=N\c3ccccc3)/C2=N/c2ccccc2)cc1 | > 100 µM (inactive) | > 100 µM (inactive) | > 100 µM (inactive) | > 100 |  | > 100 µM (inactive) | > 100 µM (inactive) | > 100 µM (inactive) | > 100 µM (inactive) | > 100 µM (inactive) | > 100 µM (inactive) | > 100 µM (inactive) | > 100 µM (inactive) | > 100 µM (inactive) | > 100 µM (inactive) | > 100 µM (inactive) | 3.43 µM (inactive) | > 100 µM (inactive) | > 100 µM (inactive) | > 100 µM (inactive) |
| NC(=S)N/N=C1\c2ccccc2CCC1CCC1(O)CCc2ccccc2C1=O (stereo unspecified) | 2.74 µM (inactive) | > 100 µM (inactive) | 18 µM (inactive) | 39.7 | 36.1 µM (inactive) | 28.6 µM (inactive) | 20.7 µM (inactive) | 37.8 µM (inactive) | 15.7 µM (inactive) | 26.9 µM (inactive) |  |  | 23 µM (inactive) | 17.8 µM (inactive) | 25.5 µM (inactive) | 26 µM (inactive) | 16.2 µM (inactive) | 22.6 µM (inactive) | 58.3 µM (inactive) | 12 µM (inactive) |
| C[S+](C)([O-])=Nn1c(=O)n2n(c1=O)[C@H]1CC[C@@H]2C1 | 46.3 µM (inactive) | > 100 µM (inactive) | > 100 µM (inactive) | > 100 | > 100 µM (inactive) | > 100 µM (inactive) | > 100 µM (inactive) | > 100 µM (inactive) | > 100 µM (inactive) | > 100 µM (inactive) | > 100 µM (inactive) | > 100 µM (inactive) | > 100 µM (inactive) | > 100 µM (inactive) | > 100 µM (inactive) | > 100 µM (inactive) | > 100 µM (inactive) | > 100 µM (inactive) | > 100 µM (inactive) | > 100 µM (inactive) |
| COC(=O)C1=C(OC(=O)/C=C/c2ccc(Cl)cc2)C(C(=O)OC)[C@@]2(O)[C@@H](C(=O)OC)[C@H](C)C[C@@H]1[C@@H]2C(=O)OC (stereo partly specified) | 13.6 µM (inactive) | 24.6 µM (inactive) | 30.8 µM (inactive) | 19.3 | 23.2 µM (inactive) | 28.4 µM (inactive) | 26.4 µM (inactive) | 3.94 µM (inactive) | 25.9 µM (inactive) | 34.1 µM (inactive) |  | 15.7 µM (inactive) | 29.4 µM (inactive) |  | 19.5 µM (inactive) | 28.4 µM (inactive) | 27.2 µM (inactive) | 13.2 µM (inactive) | 22.5 µM (inactive) | 27 µM (inactive) |
| C=C1C(=O)OC2C1CC1OC2C(C)CCC/C(C)=C\CCC1(C)O (stereo unspecified) | 5.61 µM (inactive) | 65.3 µM (inactive) | 9.75 µM (inactive) | 18.2 | 29.7 µM (inactive) | 41.3 µM (inactive) | 16.4 µM (inactive) | 13.9 µM (inactive) | 15.3 µM (inactive) | 19.8 µM (inactive) | 19.9 µM (inactive) | 10.8 µM (inactive) | 37.5 µM (inactive) | 15.3 µM (inactive) | 9.25 µM (inactive) | 69.2 µM (inactive) | 5.7 µM (inactive) | 6.82 µM (inactive) | 18.6 µM (inactive) | 32.3 µM (inactive) |
| CC(C)c1ccccc1SCc1cc(=O)cc(CSc2ccccc2C(C)C)o1 | 22.9 µM (inactive) | 22.1 µM (inactive) | 17.9 µM (inactive) | 24.7 | 19.7 µM (inactive) | 22 µM (inactive) | 32.7 µM (inactive) | 14.5 µM (inactive) | 19.4 µM (inactive) | 15.7 µM (inactive) | 20.3 µM (inactive) | 17.4 µM (inactive) | 17.7 µM (inactive) | 18.2 µM (inactive) | 37.6 µM (inactive) | 15.3 µM (inactive) | 31 µM (inactive) | 26.9 µM (inactive) | 18.5 µM (inactive) | 27.4 µM (inactive) |
| CCOC(=O)Oc1ccc(C(CNC(C)C)OC(=O)OCC)cc1OC(=O)OCC (stereo unspecified) | 25.4 µM (inactive) | > 100 µM (inactive) | > 100 µM (inactive) | > 100 | > 100 µM (inactive) | > 100 µM (inactive) | > 100 µM (inactive) | > 100 µM (inactive) | > 100 µM (inactive) | > 100 µM (inactive) | > 100 µM (inactive) | > 100 µM (inactive) | > 100 µM (inactive) | > 100 µM (inactive) | > 100 µM (inactive) | > 100 µM (inactive) | 11.5 µM (inactive) | 48.1 µM (inactive) | > 100 µM (inactive) | 43.4 µM (inactive) |
| CCN(CC)CCCNc1ncc(C)c2[nH]c3ccncc3c12 | 22 µM (inactive) | 5.82 µM (inactive) | 12.2 µM (inactive) | 35.1 | 4.91 µM (inactive) | 7.21 µM (inactive) | 12.9 µM (inactive) | 5.37 µM (inactive) | 12.4 µM (inactive) | 6.18 µM (inactive) | 17.6 µM (inactive) | 10.5 µM (inactive) | 11.2 µM (inactive) | 3.31 µM (inactive) | 12.7 µM (inactive) | 4.7 µM (inactive) | 6.61 µM (inactive) | 21.6 µM (inactive) |  | 28.1 µM (inactive) |
| COc1ccc(C(=O)/C(Br)=C/C(=O)O)cc1 | 27.5 µM (inactive) | 69.8 µM (inactive) |  | 23.5 | 40.2 µM (inactive) | 15.6 µM (inactive) | 23.3 µM (inactive) |  | 35.5 µM (inactive) | 14.7 µM (inactive) | 25.1 µM (inactive) | 9.48 µM (inactive) | 37.9 µM (inactive) | 9.75 µM (inactive) | 26.8 µM (inactive) | 42.1 µM (inactive) |  |  | 39.3 µM (inactive) | 37.2 µM (inactive) |
| COc1cc(C2c3cc4c(cc3[C@@H](Nc3cnc5ccccc5c3)C3COC(=O)[C@H]23)OCO4)cc(OC)c1O (stereo partly specified) | < 0.033 µM (active) | 0.615 µM (active) | 1.65 µM (inactive) | 0.148 | < 0.01 µM (active) | 0.238 µM (active) | 1.14 µM (inactive) | 1.39 µM (inactive) | 0.478 µM (active) | 0.883 µM (active) | 0.22 µM (active) | 1.76 µM (inactive) | 0.148 µM (active) | 0.0834 µM (active) | 0.311 µM (active) | 0.736 µM (active) | 0.912 µM (active) | 0.043 µM (active) | 0.129 µM (active) | 0.275 µM (active) |
